Source: patent US9556165B2 (priority 2012, dated 2017)
Values after ≈ are worked out from the molar mass of the structure shown.

Columns and labels:
Experiment in all cases: MIC determination, broth microdilution (CLSI)
Assay type in all cases: cell-based
[1] = system: M. catarrhalis ICB489; conditions: for MIC: Moraxella catarrhalis, ICB489, strain 12
[2] = system: strain 20
[3] = system: strain 19
[4] = system: M. morganii 126/3048; conditions: for MIC: Morganella morganii, 126/3048, strain 5
[5] = system: E. coli J62-TEM-3; conditions: for MIC: Escherichia coli, J62TEM3, read-out: strain 18 MIC, strain 18
[6] = system: strain 21
[7] = system: E. cloacae 34654; conditions: for MIC: Enterobacter cloacae, 34654, strain 3
[8] = system: S. pneumoniae 113; conditions: Streptococcus pneumoniae, 113, strain 14; read-out: strain 14 MIC
[9] = system: S. aureus 133; conditions: Staphylococcus aureus, 133, strain 11; read-out: strain 11 MIC
[10] = system: P. aeruginosa PAO1; conditions: for MIC: Pseudomonas aeruginosa, PAO1, strain 6
[11] = system: C. freundii K21/3034; conditions: for MIC: Citrobacter freundii, K21/3034, strain 4
[12] = system: B. fragilis 6688; conditions: Bacteroides fragilis, 6688, strain 15; read-out: strain 15 MIC
[13] = system: P. aeruginosa 2297 (AmpC wt); conditions: for MIC: Pseudomonas aeruginosa, strain 7
[14] = system: E. coli J62; conditions: for MIC: Escherichia coli, J62, strain 17, read-out: strain 17 MIC
[15] = system: K. pneumoniae 60; conditions: for MIC: Klebsiella pneumoniae, 60, strain 2
[16] = system: A. baumannii ATCC15308; conditions: for MIC: Acinetobacter baumannii, ATCC15308, strain 9
[17] = system: H. influenzae ATCC 49247; conditions: Haemophilus influenzae, ATCC49247, strain 13; read-out: strain 13 MIC
[18] = system: P. aeruginosa 2297-con (AmpC derepressed); conditions: for MIC: Pseudomonas aeruginosa, read-out: strain 8 MIC, strain 8
[19] = system: E. coli ATCC25922; conditions: for MIC: Escherichia coli, ATCC25922, strain 1

SMILES	MIC [1]	MIC [2]	MIC [3]	MIC [4]	MIC [5]	MIC [6]	MIC [7]	MIC [8]	MIC [9]	MIC [10]	MIC [11]	MIC [12]	MIC [13]	MIC [14]	MIC [15]	MIC [16]	MIC [17]	MIC [18]	MIC [19]	also measured
C[C@H]1[C@H](NC(=O)/C(=N\OCC(C)(C)Oc2ccc(C(=N)N)cc2)c2csc(N)n2)C(=O)N1S(=O)(=O)O [Example 17, (2S,3S)-3-{[(2Z)-2-(2-Amino-1,3-thiazol-4-yl)-2-{[2-(4-carbamimidoylphenoxy)-2-methyl-propoxy]imino}acetyl]amino}-2-methyl-4-oxoazetidine-1-sulfonic acid]	2 µg/mL (≈ 3.71 µM)	2 µg/mL (≈ 3.71 µM)	1 µg/mL (≈ 1.85 µM)	≤ 0.063 µg/mL	32 µg/mL (≈ 59.3 µM)	2 µg/mL (≈ 3.71 µM)	2 µg/mL (≈ 3.71 µM)	2 µg/mL (≈ 3.71 µM)	2 µg/mL (≈ 3.71 µM)	8 µg/mL (≈ 14.8 µM)	1 µg/mL (≈ 1.85 µM)	4 µg/mL (≈ 7.41 µM)	16 µg/mL (≈ 29.7 µM)	2 µg/mL (≈ 3.71 µM)	2 µg/mL (≈ 3.71 µM)	8 µg/mL (≈ 14.8 µM)	1 µg/mL (≈ 1.85 µM)	32 µg/mL (≈ 59.3 µM)	2 µg/mL (≈ 3.71 µM)	–
C[C@H]1[C@H](NC(=O)/C(=N\OCCOc2ccc(C(=N)N)nn2)c2csc(N)n2)C(=O)N1S(=O)(=O)O [Example 28, (2S,3S)-3-{[(2Z)-2-(2-Amino-1,3-thiazol-4-yl)-2-({2-[(6-carbamimidoylpyridazin-3-yl)oxy]ethoxy}imino)acetyl]amino}-2-methyl-4-oxoazetidine-1-sulfonic acid]	0.25 µg/mL (≈ 0.487 µM)	0.25 µg/mL (≈ 0.487 µM)	0.25 µg/mL (≈ 0.487 µM)	0.125 µg/mL (≈ 0.243 µM)	32 µg/mL (≈ 62.3 µM)	0.25 µg/mL (≈ 0.487 µM)	0.125 µg/mL (≈ 0.243 µM)	2 µg/mL (≈ 3.89 µM)	0.125 µg/mL (≈ 0.243 µM)	4 µg/mL (≈ 7.79 µM)	0.125 µg/mL (≈ 0.243 µM)	8 µg/mL (≈ 15.6 µM)	8 µg/mL (≈ 15.6 µM)	0.25 µg/mL (≈ 0.487 µM)	0.125 µg/mL (≈ 0.243 µM)	0.5 µg/mL (≈ 0.974 µM)	0.5 µg/mL (≈ 0.974 µM)	32 µg/mL (≈ 62.3 µM)	0.125 µg/mL (≈ 0.243 µM)	–
C[C@H]1[C@H](NC(=O)/C(=N\OCCOc2ccc(C(=N)N)cc2Cl)c2csc(N)n2)C(=O)N1S(=O)(=O)O [Example 20, (2S,3S)-3-{[(2Z)-2-(2-Amino-1,3-thiazol-4-yl)-2-{[2-(4-carbamimidoyl-2-chlorophenoxy)ethoxy]imino}acetyl]amino}-2-methyl-4-oxoazetidine-1-sulfonic acid]	0.5 µg/mL (≈ 0.916 µM)	2 µg/mL (≈ 3.66 µM)	2 µg/mL (≈ 3.66 µM)	2 µg/mL (≈ 3.66 µM)	32 µg/mL (≈ 58.6 µM)	1 µg/mL (≈ 1.83 µM)	2 µg/mL (≈ 3.66 µM)	16 µg/mL (≈ 29.3 µM)	0.125 µg/mL (≈ 0.229 µM)	8 µg/mL (≈ 14.7 µM)	1 µg/mL (≈ 1.83 µM)	16 µg/mL (≈ 29.3 µM)	8 µg/mL (≈ 14.7 µM)	2 µg/mL (≈ 3.66 µM)	2 µg/mL (≈ 3.66 µM)	2 µg/mL (≈ 3.66 µM)	0.5 µg/mL (≈ 0.916 µM)	32 µg/mL (≈ 58.6 µM)	2 µg/mL (≈ 3.66 µM)	–
Cc1cc(OCCO/N=C(\C(=O)N[C@@H]2C(=O)N(S(=O)(=O)O)[C@H]2C)c2csc(N)n2)ccc1C(=N)N [Example 14, (2S,3S)-3-{[(2Z)-2-(2-Amino-1,3-thiazol-4-yl)-2-{[2-(4-carbamimidoyl-3-methylphenoxy)ethoxy]imino}acetyl]amino}-2-methyl-4-oxoazetidine-1-sulfonic acid]	0.25 µg/mL (≈ 0.476 µM)	0.5 µg/mL (≈ 0.951 µM)	0.5 µg/mL (≈ 0.951 µM)	0.5 µg/mL (≈ 0.951 µM)	32 µg/mL (≈ 60.9 µM)	0.5 µg/mL (≈ 0.951 µM)	0.5 µg/mL (≈ 0.951 µM)	8 µg/mL (≈ 15.2 µM)	≤ 0.063 µg/mL	4 µg/mL (≈ 7.61 µM)	0.25 µg/mL (≈ 0.476 µM)	16 µg/mL (≈ 30.4 µM)	8 µg/mL (≈ 15.2 µM)	1 µg/mL (≈ 1.9 µM)	1 µg/mL (≈ 1.9 µM)	2 µg/mL (≈ 3.81 µM)	0.5 µg/mL (≈ 0.951 µM)	32 µg/mL (≈ 60.9 µM)	0.5 µg/mL (≈ 0.951 µM)	–
C[C@H]1[C@H](NC(=O)/C(=N\OC(COc2ccc(C(=N)N)cc2)C(=O)O)c2csc(N)n2)C(=O)N1S(=O)(=O)O (mixture of isomers) [Example 26B, (2S and 2R)-2-({[(1Z)-1-(2-Amino-1,3-thiazol-4-yl)-2-{[(2S,3S)-2-methyl-4-oxo-1-sulfoazetidin-3-yl]amino}-2-oxoethylidene]amino}oxy)-3-(4-carbamidinoyl-phenoxy)propanoic acid]	–	–	–	–	–	–	–	–	–	–	–	–	–	–	–	–	–	–	–	strain 12 MIC ([1]; strain 12): 2 µg/mL; strain 20 MIC [2]: 2 µg/mL; strain 19 MIC [3]: 1 µg/mL; strain 5 MIC ([4]; strain 5): 0.5 µg/mL; strain 18 MIC ([5]; strain 18): 32 µg/mL; strain 21 MIC [6]: 2 µg/mL; strain 3 MIC ([7]; strain 3): 1 µg/mL; strain 6 MIC ([10]; strain 6): 4 µg/mL; strain 4 MIC ([11]; strain 4): 2 µg/mL; strain 7 MIC [13]: 8 µg/mL; strain 17 MIC ([14]; strain 17): 2 µg/mL; strain 2 MIC ([15]; strain 2): 0.5 µg/mL; strain 9 MIC ([16]; strain 9): 16 µg/mL; strain 8 MIC ([18]; strain 8): 32 µg/mL; strain 1 MIC ([19]; strain 1): 2 µg/mL
